Measurements as given in patent publication US20130317092A1 (priority 2007, published 2013).

Key:
[1] = tested on: IL-6; test: IL-6 production by peritoneal macrophages from FVB/N and TgR mice; assay type: cell-based, mouse; conditions: 100 μM ACh
[2] = tested on: TNFα; test: TNFα production by peritoneal macrophages from FVB/N and TgR mice; assay type: cell-based, mouse
[3] = tested on: IL-1β, TNFα; test: IL-1β, TNFα production (ELISA) by bone marrow dendritic cells from FVB/N and TgR mice; assay type: cell-based, mouse; conditions: TgR dendritic cells, LPS and ACh
[4] = tested on: U937 cells; test: Nitric oxide production (Griess) in U937 cells; assay type: cell-based, human; conditions: 24 h, 1 μg/ml LPS, 100 μM ACh
[5] = tested on: NFκB; test: NFκB localisation by immunohistochemistry in mouse bone marrow macrophages; assay type: cell-based; conditions: LPS, LPS+ACh
[6] = tested on: IL-12; test: IL-12 production by peritoneal macrophages from FVB/N and TgR mice; assay type: cell-based, mouse
[7] = tested on: AChE-S mRNA; test: AChE-S mRNA by QRT-PCR in transfected primary human macrophages; assay type: cell-based; conditions: primary human macrophages transfected with LNA-modified oligo
Procedure: (§1) Primary human macrophages obtained from donors using methods which are well known in the art.
(§2) anti132 is set forth in CG+ACC+ATG+GCT+GTA+GAC+TGT+TA (SEQ ID NO: 109), anti182 is set forth in 5′T+AgT+Tgg+CAA+gTC+TAg+AAC+CA3′(SEQ ID NO: 110), whereby LNA modification is marked as + before the modified nucleotide.
(§3) RT was performed using SuperScript III kit reagents (Invitrogen) as per kit instructions, and ABI-7900HT (Applied Biosystems) equipped with dedicated software (ver. 2) was used to amplify the resulting cDNA template (SYBR Green I RNA amplification kit, Roche). Triplicate values of each treatment were normalized to β-actin mRNA.

[8] = tested on: Inducible Nitric Oxide Synthetase (iNOS); test: iNOS by QRT-PCR in transfected primary human macrophages; assay type: cell-based; conditions: primary human macrophages transfected with LNA-modified oligo
Procedure: as §1, §3

[9] = tested on: AChE-R mRNA; test: AChE-R mRNA by QRT-PCR in transfected primary human macrophages; assay type: cell-based; conditions: primary human macrophages transfected with LNA-modified oligo
Procedure: as §1, §2, §3

[10] = tested on: RAW 264.7 cells; test: NO production of LPS-challenged RAW 264.7 cells transfected with miR mimics; assay type: cell-based, murine
Procedure: Murine RAW 264.7 macrophage-derived cell line known to express TLR4 and respond to endotoxin by production of pro-inflammatory mediators such as Nitric Oxide (NO), prostaglandins, and cytokines as ILE IL6, and TNFalpha were used (described in the preceding examples e.g., Examples 7 and 8). Cells were grown in 5 ml flasks in a humidified atmosphere in Dulbecco's modified Eagle's medium (DMEM, Biological Industries) supplemented with 10% fetal calf serum (FCS) and 2 mM L-glutamine at 37° C., 5% CO2.
Griess method was used to determine NO2 levels in medium in which macrophages had been cultured. 100 μl of each sample+100 μl of Griess reagent (1% sulfanilamide/0.1% naphthylethylenediamine dihydrochloride/2.5% H3PO4)—were incubated 10-20 min at room temperature. Read absorbance at 546 nm in micro-ELISA reader.
miR 132 and 182* (SEQ ID NOs: 54 and 93, respectively) were LNA modified (products are designated with SEQ ID NOs. 107 and 108, respectively). A locked nucleic acid (LNA), often referred to as inaccessible RNA, is a modified RNA. Ribose moiety of LNA nucleotide is modified with an extra bridge connecting 2′ and 4′ carbons. The bridge “locks” the ribose in 3′-endo structural conformation, which is often found in A-form of DNA or RNA. LNA nucleotides can be mixed with DNA or RNA bases in the oligonucleotide whenever desired. The locked ribose conformation enhances base stacking and backbone pre-organization.
electroporation and lipofection were used for cell transfection.
Oligos containing LNA modifications on every third base (Table 4) were obtained from Sigma-Proligo. Transfection was performed with Lipofectamine 2000 (Invitrogen, Carlsbad, Calif.) using 3 μg of oligo per sample. Briefly, cells were brought to 80%-90% confluence at the time of transfection. For each transfection sample, 3 μg oligo were diluted in 1 ml of RPMI-1640 while the lipofectamine reagent was diluted in 1 ml of RPMI-1640. After 5 minutes the diluted oligo and lipofectamine were combined and incubated for 20 minutes. This was added to the cells within the 75 ml flask, containing 6 ml RPMI complete+GM-CSF ([…] final oligo concentration). […]
To determine cell viability 40 μl of thiazolyl blue tetrazolium bromide (MTT) reagent (Sigma) at 5 mg/ml was added per sample well, incubated for 30 minutes at 37° C. Medium was removed, 400 μl of DMSO was added per well and absorbance read at 550 nm Griess method was used to determine NO2 levels in conditioned medium from macrophage cultures. […] Absorbance was read at 546 nm in a micro-ELISA reader. TNF-α, IL-6 levels were measured by Enzyme-Linked Immunosorbent Assay (ELISA) according to manufacturer's procedures (R&D Systems kits, MTA00, M6000B, respectively). All absorbance results were normalized using standard curves. […]

[11] = tested on: 3′UTR fragment of human AChE cDNA; test: Dot blot hybridization of LNA-modified oligos with PCR-amplified AChE 3′UTR; assay type: binding; conditions: 5′-32P-labeled LNA-modified oligos
Procedure: The common AChE 3′-UTR sequence was obtained from AY750146 (all mRNA sequence beginning from stop codon). 3′-UTR of AChE was amplified by RT-PCR using Promega reagents and total RNA isolated with QIAGEN RNeasy kit from post-mortem human brain, with primers including XhoI, NotI restriction sites in 5′ and 3′ primer, respectively. Primer sequences used were: (5′): […], (3′) (SEQ ID NO: 111): […] (SEQ ID NO: 112). Annealing temperature of 57° C. was used. PCR product was purified with QIAGEN QiaQuick kit, size of fragment verified in agarose gel, spotted on a dry HyBond nylon membrane in 2 ul drops, cross-linked to the membrane using 1200 mJ UV burst, and baked for 1 hr at 80° C. Membrane was blocked for at least 2 hours in solution containing 50% deionized formamide, 5×SSPE, 0.5% SDS, 5×Denhardt's Solution at 50° C.; and hybridized o/night in same conditions with 5′-32P-labeled probes mimicking miRs wholly or with mismatches as indicated, washed 4 times at 37° C. in 3×SSPE, 5% SDS, 10×Denhardt's solution; once at 42° C. in 1×SSPE, 1% SDS; exposed over up to 3 days to a PhosphorImager (Molecular Dynamics/GE Healthcare) plate, and signal quantified using FujiFilm's ImageGauge 4 software.

Compound: CC(=O)OCC[N+](C)(C)C.[Cl-] [ACh, Acetylcholine chloride]
- LPS-induced IL6 increase on co-administration of ACh [1]: prevented this increase
- LPS-induced increase in TNFα on co-administration of ACh [2]: significantly attenuated the LPS-induced increase in TNFα
- up-regulation of inflammatory cytokines with ACh [3]: not ACh-preventable
- nitric oxide (NO) levels [4]: reduced NO levels, and blocked the LPS-induced increases
- relocation of NFκB from the cytoplasm to the nucleus [5]: significantly attenuated this effect
- IL-12 levels on co-administration of ACh with LPS ([6]; TgR macrophages): elevated in TgR macrophages
- IL-12 levels on co-administration of ACh with LPS ([6]; wild-type macrophages): significantly lowered

Compound: anti-132: LNA-modified reverse-complementary oligo CG+ACC+ATG+GCT+GTA+GAC+TGT+TA (CGACCATGGCTGTAGACTGTTA; LNA at 3, 6, 9, 12, 15, 18, 21, other sugars and backbone not given here)
- AChE-S mRNA levels [7]: increase in mRNA levels, albeit of the AChE-S variant alone
- iNOS expression [8]: up-regulation of Inducible Nitric Oxide Synthetase (iNOS)

Compound: miR-132 mimic: LNA-modified oligo mimicking miR-132: TA+ACA+GTC+TAC+AGC+CAT+GGT+CG (TAACAGTCTACAGCCATGGTCG; LNA at 3, 6, 9, 12, 15, 18, 21, other sugars and backbone not given here)
- AChE-S mRNA levels [7]: dramatic decline
- AChE-R mRNA levels [9]: dramatic decline
- activation of macrophage cell lines by LPS (NO production) after transfection ([10]; LPS-exposed RAW-264.7 cells transfected with oligo (Example 13)): significantly attenuate the activation of macrophage cell lines by LPS
- endotoxin response (NO production) after transfection ([10]; RAW 264.7 cells transfected or electroporated, then endotoxin challenge (Example 11)): significantly attenuate endotoxin response
- binding to PCR-amplified AChE 3′UTR (dot blot signal) [11]: significant binding to 20 ng doses of PCR product
